Results reported in patent publication US6455510B1, “Chemical Compounds” (SmithKline Beecham Corporation, priority 1997, dated 2002).

Tests used:
[1] = biological target: T1, human adenosine A1 receptor (Homo sapiens, UniProt P30542); assay: Reporter gene assay (CRE/SPAP) in CHO cells, agonist activity, adenosine A1; assay type: cell-based; settings: CHO cells stably transfected with human adenosine A1 receptor; inhibition of forskolin-stimulated SPAP production; potency relative to NECA=1
T1 construct: expressed in transfected cells; host or cells: Chinese hamster ovary (CHO) cells containing CRE/SPAP/HYG reporter elements
T1 sequence (P30542 1-326): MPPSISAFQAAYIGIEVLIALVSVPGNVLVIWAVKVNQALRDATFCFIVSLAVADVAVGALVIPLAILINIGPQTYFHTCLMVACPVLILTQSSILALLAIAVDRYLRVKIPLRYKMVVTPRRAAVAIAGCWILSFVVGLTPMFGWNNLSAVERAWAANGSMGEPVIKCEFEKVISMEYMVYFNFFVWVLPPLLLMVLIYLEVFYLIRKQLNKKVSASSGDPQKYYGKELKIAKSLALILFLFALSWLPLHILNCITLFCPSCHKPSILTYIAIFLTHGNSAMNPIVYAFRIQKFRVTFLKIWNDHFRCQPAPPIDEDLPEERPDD
Method: (§1) Reporter Gene Experiments
Agonist activity was measured in Chinese hamster ovary (CHO) cells containing the CRE/SPAP/HYG (CRE=cyclic AMP response element; HYG=hygromycin resistance; SPAP=secreted placental alkaline phosphatase) reporter gene elements, which upon stimulation of cAMP levels produced SPAP. A cell line was used, which was stably transfected with either the human adenosine Al receptor or the human adenosine A3 receptor in addition to the above elements. Cells were plated out in 96-well plates in culture medium and incubated at 37° C. for 1 hour. […] 15 Min later, cAMP levels were stimulated by addition of a maximal concentration of forskolin. All cells were then incubated for a further 5 hours at 37° C., and cooled to room temperature, after which a substrate for the phosphatase (para-nitrophenol phosphate, pNPP), which is converted by SPAP to a coloured reagent) was then added and the 96-well plates were read in a plate reader. From these readings, the concentration-dependence of the inhibition by the agonist for forskolin-stimulated SPAP production can be calculated.
(§2) (ECR=equipotent concentration ratio relative to NECA=1)

[2] = biological target: T2, human adenosine A3 receptor (Homo sapiens, UniProt P0DMS8); assay: Reporter gene assay (CRE/SPAP) in CHO cells, agonist activity, adenosine A3; assay type: cell-based; settings: CHO cells stably transfected with human adenosine A3 receptor; inhibition of forskolin-stimulated SPAP production; potency relative to NECA=1
T2 construct: expressed in transfected cells; host or cells: Chinese hamster ovary (CHO) cells containing CRE/SPAP/HYG reporter elements
T2 sequence (P0DMS8 1-318): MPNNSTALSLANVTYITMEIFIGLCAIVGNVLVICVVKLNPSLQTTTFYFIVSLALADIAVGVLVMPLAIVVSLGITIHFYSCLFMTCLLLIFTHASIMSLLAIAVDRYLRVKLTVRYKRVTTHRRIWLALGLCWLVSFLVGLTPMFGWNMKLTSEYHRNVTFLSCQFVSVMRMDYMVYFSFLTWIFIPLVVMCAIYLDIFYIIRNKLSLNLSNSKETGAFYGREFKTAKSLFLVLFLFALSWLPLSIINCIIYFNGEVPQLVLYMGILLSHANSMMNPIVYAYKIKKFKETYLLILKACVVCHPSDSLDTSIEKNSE
Method: as §1
Agonist activity was measured in Chinese hamster ovary (CHO) cells containing the CRE/SPAP/HYG (CRE=cyclic AMP response element; HYG=hygromycin resistance; SPAP=secreted placental alkaline phosphatase) reporter gene elements, which upon stimulation of cAMP levels produced SPAP. A cell line was used, which was stably transfected with either the human adenosine Al receptor or the human adenosine A3 receptor in addition to the above elements. Cells were plated out in 96-well plates in culture medium and incubated at 37° C. for 1 hour. For measurement of potency, agonists were added to the appropriate wells at a concentration range of approximately 10^−10-10^−5M. 15 Min later, cAMP levels were stimulated by addition of a maximal concentration of forskolin. All cells were then incubated for a further 5 hours at 37° C., and cooled to room temperature, after which a substrate for the phosphatase (para-nitrophenol phosphate, pNPP), which is converted by SPAP to a coloured reagent) was then added and the 96-well plates were read in a plate reader. From these readings, the concentration-dependence of the inhibition by the agonist for forskolin-stimulated SPAP production can be calculated. One of the agonists tested on each 96-well plate was the standard non-selective agonist, N-ethylcarboxamidoadenosine (NECA), and the potency of all test agonists is expressed relative to that of the NECA standard.
as §2

SMILES	A1 Receptor, Reporter Gene Assay ECR (equipotent concentration ratio relative to NECA=1) [1]	A3 Receptor, Reporter Gene Assay ECR (equipotent concentration ratio relative to NECA=1) [2]
O[C@@H]1[C@H](O)[C@@H](CF)O[C@H]1n1cnc2c(Nc3ccc(Cl)cc3F)ncnc21 [Example 28, N-(4-Chloro-2-fluoro-phenyl)-5′-deoxy-5′-fluoro-adenosine]	2.05	>170.00
CCCCOC(=O)N1CCC(Nc2nc(Cl)nc3c2ncn3[C@@H]2O[C@H](CF)[C@@H](O)[C@H]2O)CC1 [Example 26, 4-[2-Chloro-9-(5S-fluoromethyl-3R,4S-dihydroxy-tetrahydro-furan-2R-yl)-9H-purin-6-ylamino]-piperidine-1-carboxylic acid butyl ester]	4.50	>233.00
CC(C)CNc1nc(Cl)nc2c1ncn2[C@@H]1O[C@H](CF)[C@@H](O)[C@H]1O [Example 22, 2-Chloro-5′-deoxy-5′-fluoro-N-isobutyl-adenosine]	3.30	>145.00
CNS(=O)(=O)CCNc1ncnc2c1ncn2[C@@H]1O[C@H](CF)[C@H](O)[C@H]1O [Example 18, 2-[9-(5S-Fluoromethyl-3R,4R-dihydroxy-tetrahydro-furan-2R-yl)-9H-purin-6-ylamino]-ethanesulfonic acid methylamide]	0.71	>353.00
O[C@@H]1[C@H](O)[C@@H](CF)O[C@H]1n1cnc2c(NC3CC4CCC3C4)ncnc21 (stereo partly drawn) [Example 11, N-(endo-Bicyclo[2.2.1]hept-2-yl)-5′-deoxy-5′-fluoro-adenosine]	–	>152.00
CCOC(=O)N1CCC(Nc2ncnc3c2ncn3[C@@H]2O[C@H](CF)[C@@H](O)[C@H]2O)CC1 [Example 14, 4-[9-(5S-Fluoromethyl-3R,4S-dihydroxy-tetrahydro-furan-2R-yl)-9H-purin-6-ylamino]-piperidine-1-carboxylic acid ethyl ester]	1.68	>435.00
O[C@@H]1[C@H](O)[C@@H](CF)O[C@H]1n1cnc2c(NC3CC4CCC3C4)nc(Cl)nc21 (stereo partly drawn) [Example 8, N-(endo-Bicyclo[2.2.1]hept-2-yl)-2-chloro-5′-deoxy-5′-fluoro-adenosine]	–	>91.00
CC(F)(F)[C@H]1O[C@@H](n2cnc3c(NCC4CC4)ncnc32)[C@H](O)[C@@H]1O [Example 17, (2R,3R,4S,5S)-2-[6-(Cyclopropylmethyl-amino)-purin-9-yl]-(1,1-difluoro-ethyl)-tetrahydro-furan-3,4-diol]	22.30	>353.00
CC(=O)N1CCC(Nc2nc(Cl)nc3c2ncn3[C@@H]2O[C@H](CF)[C@@H](O)[C@H]2O)CC1 [Example 10, 1-{4-[2-Chloro-9-(5S-fluoromethyl-3R,4S-dihydrox-tetrahydro-furan-2R-yl)-9H-purin-6-ylamino]-piperidin-1-yl}-ethanone]	66.80	>162.00
CC(C)(C)CNc1ncnc2c1ncn2[C@@H]1O[C@H](CF)[C@@H](O)[C@H]1O [Example 19, 5′-Deoxy-5′-fluoro-N-(2,2-dimethyl-propyl)-adenosine]	3.51	>353.00
CC(C)(C)CNc1nc(Cl)nc2c1ncn2[C@@H]1O[C@H](CF)[C@@H](O)[C@H]1O [Example 24, 2-Chloro-5′-deoxy-N-(2,2-dimethyl-propyl)-5′-fluoro-adenosine]	7.83	>233.00
O[C@@H]1[C@H](O)[C@@H](C(F)(F)F)O[C@H]1n1cnc2c(NC3CCOCC3)nc(Cl)nc21 [Example 4, (2R,3 R,4S,5S)-2-[2-Chloro-6-(tetrahydro-pyran-4-ylamino)-purin-9-yl]-5-trifluoromethyl-tetrahydro-furan-3,4-diol]	190.10	–
O=S1(=O)CCC(Nc2nc(Cl)nc3c2ncn3[C@@H]2O[C@H](CF)[C@@H](O)[C@H]2O)CC1 [Example 15, 2-Chloro-5′-deoxy-N-(1,1-dioxo-hexahydro-1δ6-thiopyran-4-yl)-5′-fluoro-adenosine]	9.16	>435.00
O[C@@H]1[C@H](O)[C@@H](CF)O[C@H]1n1cnc2c(N[C@H]3CCC[C@@H]3O)nc(Cl)nc21 [Example 7, 2-Chloro-5′-deoxy-5′-fluoro-N-(2S-hydroxy-cyclopent-(S)-yl)adenosine]	–	>91.00
O[C@@H]1[C@H](O)[C@@H](CF)O[C@H]1n1cnc2c(NC3CC4CCC3C4)nc(Cl)nc21 (stereo partly drawn) [Example 25, N-(exo-Bicyclo[2.2.1]hept-2-yl)-2-chloro-5′-deoxy-5′-fluoro-adenosine]	–	>151.00
O[C@@H]1[C@H](O)[C@@H](CF)O[C@H]1n1cnc2c(N[C@H]3CCC[C@@H]3O)ncnc21 [Example 13, 5′-Deoxy-5′-fluoro-N-(2S-hydroxy-cyclopent-(S)-yl)-adenosine]	–	>152.00
CCNC(=O)N1CCC(Nc2nc(Cl)nc3c2ncn3[C@@H]2O[C@H](CF)[C@@H](O)[C@H]2O)CC1 [Example 29, 4-[2-Chloro-9-(5S-fluoromethyl-3R,4S-dihydroxy-tetrahydro-furan-2R-yl)-9H-purin-6-ylamino]-piperidine-1-carboxylic acid ethylamide]	51.60	>236.00
CS(=O)(=O)N1CCC(Nc2nc(Cl)nc3c2ncn3[C@@H]2O[C@H](CF)[C@@H](O)[C@H]2O)CC1 [Example 23, 2-Chloro-5′-deoxy-5′-fluoro-N-(1-methanesulfonyl-piperidin-4-yl)-adenosine]	11.20	48.90
CCOC(=O)N1CCC(Nc2nc(Cl)nc3c2ncn3[C@@H]2O[C@H](CF)[C@@H](O)[C@H]2O)CC1 [Example 9, 4-[2-Chloro-9-(5S-fluoromethyl-3R,4S-dihydroxy-tetrahydro-furan-2R-yl)-9H-purin-6-ylamino]-piperidine-1-carboxylic acid ethyl ester]	3.00	>129.00
O=S1(=O)CCC(Nc2ncnc3c2ncn3[C@@H]2O[C@H](CF)[C@@H](O)[C@H]2O)CC1 [Example 27]	–	>162.00
O[C@@H]1[C@H](O)[C@@H](CF)O[C@H]1n1cnc2c(N[C@@H]3CCC[C@H]3F)nc(Cl)nc21 [Example 6, 2-Chloro-5-deoxy-5′-fluoro-N-(2R-fluoro-cyclopent-(R)-yl)-adenosine]	–	>156.00
